Some test systems named below: Fusarium oxysporum; Escherichia coli SBS 363; Micrococcus luteus; Streptococcus mutans; Staphylococcus aureus; Escherichia coli 078; Escherichia coli K88; Escherichia coli K99; Acinetobacter baumannii; Escherichia coli UB1005.
Test in all cases: ≥ marks a high value that may be exact or a test limit, other limits are often not marked, values filed in µg/mL are converted to µM
Assay [1] concerns Veillonella atypica PK1910.
Assay [2] has as its system Streptococcus gordonii Challis DL1.
Assay [3] concerns Streptococcus sanguinis NY101.
The subject of assay [4] is Streptococcus mitis ATCC 903.
In assay [5] the test system is Lacticaseibacillus casei ATCC 4646.
The test system of assay [6] is Pseudomonas aeruginosa PAK.
The test system of assay [7] is Staphylococcus aureus ATCC 25923.
The subject of assay [8] is Bordetella bronchiseptica CUN 11844-99.
Assay [9] relates to Escherichia coli ATCC 25922.
For assay [10], the system named is Pseudomonas aeruginosa CUN 4158-02.
Assay [11] relates to Enterococcus faecalis ATCC 29212.
Assay [12] concerns Listeria monocytogenes CGMCC 1.1075.
The subject of assay [13] is Bacillus subtilis CMCC 63501.
Assay [14] relates to Bacillus cereus CGMCC 1.932.
In assay [15] the test system is Salmonella enterica subsp. enterica serovar Typhimurium ATCC 14028.
The test system of assay [16] is Pseudomonas aeruginosa ATCC 27853.
Assay [17] has as its system Staphylococcus epidermidis ATCC 12228.
Assay [18] deals with Salmonella enterica subsp. enterica serovar Pullorum ATCC 7913.
Assay [19] concerns Salmonella typhimurium ATCC 7731.
Assay [20] deals with Pseudomonas aeruginosa PAO1.
Assay [21] deals with Staphylococcus aureus ATCC 43300.
Assay [22] has as its system Mannheimia haemolytica 82-25.

In brackets after ≈: the same amount, converted by molar mass.

For `CC[C@H](C)[C@H](NC(=O)[C@@H]1CCCN1C(=O)[C@H](CC(C)C)NC(=O)[C@H](Cc1ccc(O)cc1)NC(=O)[C@H](CCCCN)NC(=O)[C@H](CCCCN)NC(=O)[C@H](CC(C)C)NC(=O)[C@H](C)NC(=O)[C@H](CO)NC(=O)[C@H](CC(C)C)NC(=O)[C@H](Cc1ccccc1)NC(=O)CN)C(=O)N[C@H](C(=O)N[C@@H](CC(C)C)C(=O)N[C@@H](CCCCN)C(=O)N[C@@H](Cc1cnc[nH]1)C(=O)N[C@H](C(=O)O)C(C)C)C(C)C` [GFLSALKKYLPIVLKHV], the results for the MIC in the assay on Fusarium oxysporum, against Escherichia coli SBS 363 and in the assay on Micrococcus luteus were 0.78 µM (≈ 1.5 µg/mL), 3.12 µM (≈ 6.02 µg/mL) and 1.56 µM (≈ 3.01 µg/mL), respectively.

For the compound `CC[C@H](C)[C@H](N)C(=O)N[C@@H](CCCCN)C(=O)N[C@@H](CCC(N)=O)C(=O)N[C@@H](CC(C)C)C(=O)N[C@@H](CC(C)C)C(=O)N[C@@H](Cc1cnc[nH]1)C(=O)N[C@@H](Cc1ccccc1)C(=O)N[C@@H](Cc1ccccc1)C(=O)N[C@@H](CCC(N)=O)C(=O)N[C@@H](CCCN=C(N)N)C(=O)N[C@@H](Cc1ccccc1)C(N)=O` [IKQLLHFFQRF], the minimal inhibitory concentration (MIC) – broadly, the lowest concentration that inhibits growth of the organism – is not below 43.3 µM in assay [1]; 16.3 µM (≈ 24 µg/mL) against Streptococcus mutans; 21.7 µM (≈ 32 µg/mL) in [2]; not below 42.8 µM in assay [3]; not below 42.8 µM in assay [4]; 21.7 µM (≈ 32 µg/mL) in [5]. Moreover, the figures for the MIC (in [6]; against Staphylococcus aureus) were not below 42.3 µM and 42.3 µM (≈ 62.5 µg/mL), respectively.

Regarding `CC(C)C[C@H](NC(=O)CNC(=O)[C@H](CCCCN)NC(=O)[C@H](Cc1ccccc1)NC(=O)[C@H](CCCCN)NC(=O)[C@H](Cc1c[nH]c2ccccc12)NC(=O)[C@H](CCCN=C(N)N)NC(=O)[C@H](Cc1ccccc1)NC(=O)[C@H](CCCN=C(N)N)NC(=O)[C@H](CCCN=C(N)N)NC(=O)[C@H](Cc1ccc(O)cc1)NC(=O)[C@H](CCCCN)NC(=O)[C@H](CCCCN)NC(=O)CN)C(=O)N[C@@H](Cc1ccccc1)C(=O)N[C@@H](CC(C)C)C(=O)N[C@@H](Cc1ccccc1)C(=O)N[C@@H](CC(C)C)C(=O)NCC(N)=O` [GKKYRRFRWKFKGLFLFLG], the MIC is 26.1 µM (≈ 64 µg/mL) in assay [7], 6.54 µM (≈ 16 µg/mL) in assay [8], 26.1 µM (≈ 64 µg/mL) in [9] and 26.1 µM (≈ 64 µg/mL) in [10].

For the compound `NC(=O)[C@H](Cc1c[nH]c2ccccc12)NC(=O)[C@H](CCCN=C(N)N)NC(=O)[C@H](Cc1c[nH]c2ccccc12)NC(=O)[C@H](CCCN=C(N)N)NC(=O)[C@H](Cc1c[nH]c2ccccc12)NC(=O)[C@H](Cc1c[nH]c2ccccc12)NC(=O)[C@H](Cc1c[nH]c2ccccc12)NC(=O)[C@H](CCCN=C(N)N)NC(=O)[C@H](Cc1c[nH]c2ccccc12)NC(=O)[C@@H](N)CCCN=C(N)N` [RWRWWWRWRW], the minimum inhibitory concentration (MIC) in the assay with Escherichia coli 078 was 2 µM (≈ 3.52 µg/mL); in assay [11], 4 µM (≈ 7.04 µg/mL); in assay [12] it was 1 µM (≈ 1.76 µg/mL); in assay [13], 8 µM (≈ 14.1 µg/mL); in assay [14] it was 4 µM (≈ 7.04 µg/mL); in assay [7] it was 2 µM (≈ 3.52 µg/mL). Moreover, the MIC in [15] stood at 8 µM (≈ 14.1 µg/mL); in assay [16], 32 µM (≈ 56.3 µg/mL); against Escherichia coli K88, 2 µM (≈ 3.52 µg/mL); in [17], 2 µM (≈ 3.52 µg/mL); against Escherichia coli K99 it was 8 µM (≈ 14.1 µg/mL); with Acinetobacter baumannii it was 2 µM (≈ 3.52 µg/mL). Further, the MIC worked out at 4 µM (≈ 7.04 µg/mL) in assay [18]; 4 µM (≈ 7.04 µg/mL) against Escherichia coli UB1005; 8 µM (≈ 14.1 µg/mL) in assay [19]; 4 µM (≈ 7.04 µg/mL) in [20]; 2 µM (≈ 3.52 µg/mL) in assay [21].

As for `CC[C@H](C)[C@H](NC(=O)[C@H](CCCN=C(N)N)NC(=O)[C@H](Cc1c[nH]c2ccccc12)NC(=O)[C@H](CCCN=C(N)N)NC(=O)[C@H](Cc1c[nH]c2ccccc12)NC(=O)[C@H](Cc1c[nH]c2ccccc12)NC(=O)[C@H](Cc1c[nH]c2ccccc12)NC(=O)[C@H](CCCN=C(N)N)NC(=O)[C@H](Cc1c[nH]c2ccccc12)NC(=O)[C@H](CCCN=C(N)N)NC(=O)CN)C(N)=O` [GRWRWWWRWRI], the minimum inhibitory concentration (MIC) with Escherichia coli 078 was determined as 4 µM (≈ 6.97 µg/mL); in [11] it was 2 µM (≈ 3.49 µg/mL); in assay [12], 1 µM (≈ 1.74 µg/mL); in assay [13] it was 4 µM (≈ 6.97 µg/mL); in assay [14], 8 µM (≈ 13.9 µg/mL); in [7], 2 µM (≈ 3.49 µg/mL). For the same compound, the minimum inhibitory concentration (MIC) in assay [15] stood at 4 µM (≈ 6.97 µg/mL); in assay [16] it was 8 µM (≈ 13.9 µg/mL); against Escherichia coli K88, 4 µM (≈ 6.97 µg/mL); in assay [17], 4 µM (≈ 6.97 µg/mL); in the assay on Escherichia coli K99, 8 µM (≈ 13.9 µg/mL); in the assay on Acinetobacter baumannii it was 2 µM (≈ 3.49 µg/mL). Moreover, the MIC in [18] is 2 µM (≈ 3.49 µg/mL); in the assay with Escherichia coli UB1005 it was 8 µM (≈ 13.9 µg/mL); in assay [19] it was 16 µM (≈ 27.9 µg/mL); in [20] it was 8 µM (≈ 13.9 µg/mL); in [21] it was 4 µM (≈ 6.97 µg/mL).

In the case of `NCC(=O)N[C@@H](CC(=O)O)C(=O)N[C@@H](CC(=O)O)C(=O)N[C@@H](CC(=O)O)C(=O)N[C@@H](CC(=O)O)C(=O)N[C@@H](CC(=O)O)C(=O)N[C@@H](CC(=O)O)C(=O)O` [GDDDDDD], in assay [22], the MIC is not below 60 µM.

As for `CC(C)[C@H](NC(=O)[C@H](CCCN=C(N)N)NC(=O)[C@H](Cc1c[nH]c2ccccc12)NC(=O)[C@H](CCCN=C(N)N)NC(=O)[C@H](Cc1c[nH]c2ccccc12)NC(=O)[C@H](Cc1c[nH]c2ccccc12)NC(=O)[C@H](Cc1c[nH]c2ccccc12)NC(=O)[C@H](CCCN=C(N)N)NC(=O)[C@H](Cc1c[nH]c2ccccc12)NC(=O)[C@@H](N)CCCN=C(N)N)C(N)=O` [RWRWWWRWRV], the MIC in the assay with Escherichia coli 078 came out at 4 µM (≈ 6.69 µg/mL); in [11] it was 4 µM (≈ 6.69 µg/mL); in assay [12] it was 1 µM (≈ 1.67 µg/mL); in assay [13], 4 µM (≈ 6.69 µg/mL); in assay [14], 16 µM (≈ 26.8 µg/mL); in assay [7] it was 4 µM (≈ 6.69 µg/mL). Moreover, the MIC is 8 µM (≈ 13.4 µg/mL) in assay [15]; 16 µM (≈ 26.8 µg/mL) in assay [16]; 4 µM (≈ 6.69 µg/mL) against Escherichia coli K88; 4 µM (≈ 6.69 µg/mL) in assay [17]; 8 µM (≈ 13.4 µg/mL) in the assay with Escherichia coli K99; 2 µM (≈ 3.34 µg/mL) against Acinetobacter baumannii. For the same compound, the minimum inhibitory concentration (MIC) in assay [18] is 4 µM (≈ 6.69 µg/mL); in the assay with Escherichia coli UB1005, 8 µM (≈ 13.4 µg/mL); in assay [19], 8 µM (≈ 13.4 µg/mL); in [20], 16 µM (≈ 26.8 µg/mL); in assay [21], 4 µM (≈ 6.69 µg/mL).

Regarding `NC(=O)[C@H](Cc1ccccc1)NC(=O)[C@H](Cc1c[nH]c2ccccc12)NC(=O)[C@H](Cc1c[nH]c2ccccc12)NC(=O)[C@H](Cc1c[nH]c2ccccc12)NC(=O)[C@H](CCCN=C(N)N)NC(=O)[C@H](CCCN=C(N)N)NC(=O)[C@@H](N)CCCN=C(N)N` [RRRWWWF], the MIC was not below 53.7 µM in assay [1]; 4.74 µM (≈ 5.65 µg/mL) in the assay on Streptococcus mutans; 26.8 µM (≈ 32 µg/mL) in assay [2]; 13.4 µM (≈ 16 µg/mL) in assay [3]; 26.8 µM (≈ 32 µg/mL) in assay [4]; 13.4 µM (≈ 16 µg/mL) in assay [5].

Consider `C[C@H](N)C(=O)N[C@@H](CC(=O)O)C(=O)N[C@@H](CC(=O)O)C(=O)N[C@@H](CC(=O)O)C(=O)N[C@@H](CC(=O)O)C(=O)N[C@@H](CC(=O)O)C(=O)N[C@@H](CC(=O)O)C(=O)O` [ADDDDDD], for which the minimum inhibitory concentration (MIC) in assay [22] is not below 50 µM.
